Patent US9113629B2, “4-amino-6-(4-substituted-phenyl)-picolinates and 6-amino-2-(4-substituted-phenyl)-pyrimidine-4-carboxylates and their use as herbicides” (DOW AGROSCIENCES LLC, priority 2013, dated 2015)
Read-outs that look alike come from different tables or passages of the source.

Columns and labels:
[1] = system: Key Broadleaf Weed and Crop Species; assay: Post-emergent Test II herbicidal activity (Table 5); type: in vivo; settings: post-emergence, 336 h, 14 days after application; for pest or weed control at 70 g/ha: application rate 70 g ai/ha; for pest or weed control at 140 g/ha: application rate 140 g ai/ha
Method in brief: (§1)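 Test species were raised 7–21 d under greenhouse conditions until reaching the first or second true leaf, sprayed with formulated compound at 187 L/ha, and kept subirrigated to avoid wash-off. Fourteen days later, damage was rated visually on a 0–100% scale against untreated plants.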

[2] = system: Key Grass and Sedge Weeds as well as Grass Crops; assay: Post-emergent Test II herbicidal activity (Table 6); type: in vivo; settings: post-emergence, 336 h; for pest or weed control at 70 g/ha: 70 g ai/ha; for pest or weed control at 140 g/ha: 140 g ai/ha
Method in brief: as §1

[3] = ABUTH: velvetleaf (Abutilon theophrasti), read-out: Visual Growth Reduction (%) 14 Days After Application, ABUTH
[4] = AMARE: redroot pigweed (Amaranthus retroflexus), read-out: Visual Growth Reduction (%) 14 Days After Application, AMARE
[5] = BRSNN: oilseed-rape, canola (Brassica napus), read-out: Visual Growth Reduction (%) 14 Days After Application, BRSNN
[6] = CHEAL: lambsquarters (Chenopodium album), read-out: Visual Growth Reduction (%) 14 Days After Application, CHEAL
[7] = EPHHL: wild poinsettia (Euphorbia heterophylla), read-out: Visual Growth Reduction (%) 14 Days After Application, EPHHL
[8] = HELAN: sunflower (Helianthus annuus), read-out: Visual Growth Reduction (%) 14 Days After Application, HELAN
[9] = VIOTR: wild pansy (Viola tricolor), read-out: Visual Growth Reduction (%) 14 Days After Application, VIOTR
[10] = CYPES: yellow nutsedge (Cyperus esculentus), read-out: Visual Growth Reduction (%) 14 Days After Application, CYPES
[11] = DIGSA: crabgrass (Digitaria sanguinalis), read-out: Visual Growth Reduction (%) 14 Days After Application, DIGSA
[12] = ECHCG: barnyardgrass (Echinochloa crus-galli), read-out: Visual Growth Reduction (%) 14 Days After Application, ECHCG
[13] = ORYSA: rice (Oryza sativa), crop, read-out: Visual Growth Reduction (%) 14 Days After Application, ORYSA
[14] = SETFA: giant foxtail (Setaria faberi), read-out: Visual Growth Reduction (%) 14 Days After Application, SETFA
[15] = SORVU: grain sorghum (Sorghum vulgare), read-out: Visual Growth Reduction (%) 14 Days After Application, SORVU
[16] = TRZSS (wheat, Triticum aestivum), crop, read-out: Visual Growth Reduction (%) 14 Days After Application, TRZSS
[17] = ZEAMX: maize, corn (Zea mays), crop, read-out: Visual Growth Reduction (%) 14 Days After Application, ZEAMX

Row | melting point | SMILES | pest or weed control at 70 g/ha [1, 3] [%] | pest or weed control at 140 g/ha [1, 3] [%] | pest or weed control at 70 g/ha [1, 4] [%] | pest or weed control at 140 g/ha [1, 4] [%] | pest or weed control at 70 g/ha [1, 5] [%] | pest or weed control at 140 g/ha [1, 5] [%] | pest or weed control at 70 g/ha [1, 6] [%] | pest or weed control at 140 g/ha [1, 6] [%] | pest or weed control at 70 g/ha [1, 7] [%] | pest or weed control at 140 g/ha [1, 7] [%] | pest or weed control at 70 g/ha [1, 8] [%] | pest or weed control at 140 g/ha [1, 8] [%] | pest or weed control at 70 g/ha [1, 9] [%] | pest or weed control at 140 g/ha [1, 9] [%] | pest or weed control at 70 g/ha [2, 10] [%] | pest or weed control at 140 g/ha [2, 10] [%] | pest or weed control at 70 g/ha [2, 11] [%] | pest or weed control at 140 g/ha [2, 11] [%] | pest or weed control at 70 g/ha [2, 12] [%] | other results
1 | 169 to 170 °C | COC(=O)c1nc(-c2ccc(I)c(F)c2F)nc(N)c1OC [Compound 24, methyl 6-amino-2-(2,3-difluoro-4-iodophenyl)-5-methoxypyrimidine-4-carboxylate] | 95 to 100 | 95 to 100 | 75 to 84 | 85 to 94 | 95 to 100 | 95 to 100 | 95 to 100 | 95 to 100 | 95 to 100 | 95 to 100 | 85 to 94 | 95 to 100 | 45 to 59 | 95 to 100 | 95 to 100 | 95 to 100 | 45 to 59 | 60 to 74 | 95 to 100 | pest or weed control at 140 g/ha [2, 12]: 95 to 100%; pest or weed control at 70 g/ha [2, 13]: 0 to 29%; pest or weed control at 140 g/ha [2, 13]: 0 to 29%; pest or weed control at 70 g/ha [2, 14]: 60 to 74%; pest or weed control at 140 g/ha [2, 14]: 85 to 94%; pest or weed control at 70 g/ha [2, 15]: 85 to 94%; pest or weed control at 140 g/ha [2, 15]: 85 to 94%; pest or weed control at 70 g/ha [2, 16]: 0 to 29%; pest or weed control at 140 g/ha [2, 16]: 30 to 44%; pest or weed control at 70 g/ha [2, 17]: 95 to 100%; pest or weed control at 140 g/ha [2, 17]: 95 to 100%
2 | 165 to 175 °C (dec.) | C#Cc1ccc(-c2nc(C(=O)O)c(Cl)c(N)c2F)c(F)c1 [Compound 108] | 45 to 59 | 75 to 84 | 75 to 84 | 95 to 100 | 85 to 94 | 85 to 94 | 60 to 74 | 75 to 84 | 85 to 94 | 95 to 100 | 85 to 94 | 95 to 100 | 0 to 29 | 45 to 59 | 45 to 59 | 30 to 44 | 60 to 74 | 60 to 74 | 45 to 59 | pest or weed control at 140 g/ha [2, 12]: 75 to 84%; pest or weed control at 70 g/ha [2, 13]: 0 to 29%; pest or weed control at 140 g/ha [2, 13]: 0 to 29%; pest or weed control at 70 g/ha [2, 14]: 45 to 59%; pest or weed control at 140 g/ha [2, 14]: 30 to 44%; pest or weed control at 70 g/ha [2, 15]: 0 to 29%; pest or weed control at 140 g/ha [2, 15]: 30 to 44%; pest or weed control at 70 g/ha [2, 16]: 30 to 44%; pest or weed control at 140 g/ha [2, 16]: 30 to 44%; pest or weed control at 70 g/ha [2, 17]: 0 to 29%; pest or weed control at 140 g/ha [2, 17]: 45 to 59%
3 | 157 to 160 °C (dec.) | C#Cc1ccc(-c2nc(C(=O)O)c(Cl)c(N)c2F)cc1F [Compound 71] | 0 to 29 | 45 to 59 | 60 to 74 | 75 to 84 | 45 to 59 | 45 to 59 | 85 to 94 | 85 to 94 | 95 to 100 | 95 to 100 | 60 to 74 | 75 to 84 | 0 to 29 | 0 to 29 | 0 to 29 | 0 to 29 | 60 to 74 | 45 to 59 | 85 to 94 | pest or weed control at 140 g/ha [2, 12]: 85 to 94%; pest or weed control at 70 g/ha [2, 13]: 0 to 29%; pest or weed control at 140 g/ha [2, 13]: 0 to 29%; pest or weed control at 70 g/ha [2, 14]: 60 to 74%; pest or weed control at 140 g/ha [2, 14]: 60 to 74%; pest or weed control at 70 g/ha [2, 15]: 30 to 44%; pest or weed control at 140 g/ha [2, 15]: 45 to 59%; pest or weed control at 70 g/ha [2, 16]: 30 to 44%; pest or weed control at 140 g/ha [2, 16]: 45 to 59%; pest or weed control at 70 g/ha [2, 17]: 95 to 100%; pest or weed control at 140 g/ha [2, 17]: 95 to 100%
